For test [1], the system named is cells resulting from HFDa skin fibroblasts. Kind of test: Inhibition of calcium flux (IC50Ca2+) on cells from HFDa skin fibroblasts. It counts as cell-based. To be noted: Skin fibroblast, concentration which inhibits release of Ca2+ by 50%. An excerpt: (§1) In order for a substance to be recognized as a calcium-channel inhibitor, it must be able to reduce the intracellular calcium concentration or reduce the binding of calcium to intracellular proteins, such as, for example, calmodulin, such as is described in particular by Galizzi, J. P. et al., J. Biol. Chem., 1987, 262 p. 6947; by Y. Okamiya et al., Eur. J. Pharmacol., 1991, 205, p. 49; by J. A. Wagner et al., J. Neurosci., 1988, 8, p. 3354; by H. R. Lee et al., Life Sci., 1984, 35, p. 721; by Schoemaker H. and Lauger S., Eur. J. Pharmacol., 1985, 111, p. 273 or by I. J. Reynolds et al., J. Pharmacol. Exp. Ther., 1986, 237, p. 731.
(§2) The Applicant determined the IC50Ca2+ for inhibition of calcium flux of three compounds according to the invention using the protocol shown in these documents. IC50Ca2+ represents the concentration which inhibits release of Ca^2+ by 50%.
A general note: Calcium assays in cells follow changes in intracellular calcium, usually with a dye or a luminescent sensor.

In the next test the test system is SKNSH nerve cells. Nature of the test: Inhibition of calcium flux (IC50Ca2+) on SKNSH nerve cells. It is filed as cell-based. Particulars: Homo sapiens, SK-N-SH, concentration which inhibits release of Ca2+ by 50%.
Text: as §1, §2

Test [2] relates to Ca2+ channel (L, verapamil site). Nature of the test: Competitive inhibition of [3H]-(-)-D888 binding to L-type calcium channels, rat cerebral cortex homogenates. To be noted: 1 μM in DMSO; [3H]-(-)-D888 0.5 nM; 60 min/22° C. An excerpt:
The experimental conditions are as follows:
D888, which is [^3H]-(−)-desmethoxyverapamil, acts as radiolabelled specific ligand and D600, which is (±)-methoxyverapamil hydrochloride, acts as reference molecule.
The specific binding of a ligand (labelled D888) to the receptors (L-type calcium channels, verapamil site) is defined as the difference between the total binding and the non-specific binding determined in the presence of an excess of cold (nonradioactive) ligand. The results are expressed as percentage of inhibition of the specific binding of the control in the presence of the compound tested.

In test [3] the test system is human striated muscle cells innervated with explants of rat embryo spinal ganglia and spinal cord. Nature of the test: Nerve/muscle coculture model, contractions of muscle fibres. It counts as cell-based. To be noted: earlier demonstration by the Applicant Company, concentration not given. As for the experimental part:
The mixture of compounds of Example 2 was tested on a model of nerve/muscle coculture which makes it possible to recreate a motor arc by innervating human striated muscle cells with explants of rat embryo spinal ganglia and spinal cord.
Human muscle cells, resulting from samples of striated muscles from a healthy donor, are inoculated in wells with a cross section of 1.8 cm^2 (24-well culture dishes). After culturing for 10 days, these cells form a monolayer and fuse. At this stage, spinal cord explants from rat embryos aged 13 days comprising the spinal ganglia are deposited on the culture.
The growth of the neurites is visible outside the spinal cord explant after culturing for one day. The first contractions of the muscle fibres are observed after coculturing for 5 to 6 days and, after 3 weeks, all the muscle fibres in the vicinity of the explants are contracting.
The cocultures are used after 21 days, when the muscle fibres are striated and have mature differentiated neuromuscular junctions.
A muscle fibre having regular contractions (at least 60 contractions per minute) is then selected from three different culture wells and the number of contractions is counted over 30 seconds. […] At the end of incubation, the number of contractions is again counted over 30 seconds. […]

Test [4] in a line: Antiwrinkle activity in vivo. Particulars: earlier demonstration, no details.

In the case of `CCCCCCCCCCCCCCCC(=O)OCCOCCN(CC)CC` [((Diethylamino)ethoxy)ethyl palmitate], the IC50 in test [1] was determined as 14 µM; with SKNSH nerve cells it was 24 µM.

For the compound `CCCCCCCCCCCCCCCCCC(=O)OCCOCCN(CC)CC` [((Diethylamino)ethoxy)ethyl stearate], the IC50 with SKNSH nerve cells was found to be 37 µM.

`CCCCCCCCCCCC(=O)OCCOCCN(CC)CC` [((Diethylamino)ethoxy)ethyl laurate, ((diethylamino)ethoxy)ethyl laurate]: the “percentage of inhibition of the specific binding of the control” value in test [2] is given as 31%. Also, the IC50 in test [1] worked out at 13 µM; with SKNSH nerve cells, 11 µM.

Take `CN1C(=O)CN=C(c2ccccc2)c2cc(Cl)ccc21` [diazepam]: the “contractions of the muscle fibres” value in test [3] is on record as “inhibited the contractions of the muscle fibres”. Besides, the antiwrinkle activity entry in test [4] is reported as “demonstrated in vivo”.

On to `CCCCCCCCCC(=O)OCCOCCN(CC)CC` [((Diethylamino)ethoxy)ethyl decanoate], for which, in the test on SKNSH nerve cells, the IC50 stood at 26 µM.

One may read the IC50 as the concentration at which inhibition is half-maximal.

These data come from patent publication US20080287537A1, “Composition, Particularly a Cosmetic Composition, Comprising ((Dialkylamino)Alkoxy) Ethanol Ester” (L'OREAL, priority 2004, published 2008).
